Experimental findings from the OPERA property sets (Mansouri et al. 2018) are described below.

In general, melting point refers to the temperature, or range, at which the solid turns liquid. What is called boiling point is the temperature of boiling at a given pressure.

The structures appear in SMILES notation.

`Clc1ccc2c(Cl)ccc(Cl)c2c1Cl` displayed a log10 Koa of 8.4. `CC1(C)C(C=C(Cl)Cl)C1C(=O)OCc1cccc(Oc2ccccc2)c1` (stereo not given): the log10 Koc (L/kg) was 4.8, the log10 vapour pressure (mmHg) was -7.66 and the melting point was determined as 34 °C.

As to `Cl[C@H]1[C@H](Cl)[C@@H](Cl)[C@H](Cl)[C@@H](Cl)[C@H]1Cl` (racemic), the ready biodegradability entry is “not readily biodegradable”. With `C=CC#N`, the boiling point worked out at 77.3 °C, the log10 Henry constant (atm·m³/mol) was -3.86, the log10 vapour pressure (mmHg) is 2.04 and the melting point is -83.5 °C. For the same compound, the ready biodegradability result was “readily biodegradable”. For `NNC(N)=S`, the melting point was 183 °C and the ready biodegradability result is on record as “not readily biodegradable”. `CCC(O)C(CC(C)N(C)C)(c1ccccc1)c1ccccc1` (stereo not given): the melting point was determined as 127 °C.

With `CCC(=O)Nc1ccccc1`, the boiling point was determined as 222 °C, the melting point was found to be 106 °C and the ready biodegradability entry is reported as “not readily biodegradable”. `C=C(C)C(OC(C)=O)OC(C)=O`: the boiling point is 191 °C. `C[C@]12CC[C@H]3[C@@H](CCC4=CC(=O)CC[C@@]43C)[C@@H]1CC[C@@H]2OC(=O)CCC1CCCC1` displayed a melting point of 155 °C. `Cc1ccco1` showed a boiling point of 65 °C, a log10 vapour pressure (mmHg) of 2.19 and a melting point of -87.5 °C. The compound `CNC1CCCCC1` registered a boiling point of 147 °C. Turning to `CCOc1cccc(N(CC)CC)c1`, the boiling point came out at 286 °C. In turn, `NS(=O)(=O)c1cc2c(cc1Cl)NC(Cc1ccc(F)cc1)NS2(=O)=O` (stereo not given) came in with a melting point of 239 °C. In turn, `ClC(Cl)C(Cl)(Cl)Cl` returned a boiling point of 160 °C, a log10 vapour pressure (mmHg) of 0.544 and a melting point of -29 °C. On to `CCC(C)(Cl)CCl` (stereo not given), for which the boiling point turned out to be 134 °C.

In the case of `CC1(C)C=CC=C(C(=O)O)C=C1`, the melting point was found to be 88.5 °C.

Compound `Cc1cc2ccccc2cn1` registered a boiling point of 249 °C and a melting point of 68 °C. `Cc1ccc(C#N)cc1` returned a boiling point of 217 °C, a log10 vapour pressure (mmHg) of -0.504 and a melting point of 29.5 °C.

For `CCCCCCCCCCCCCCCCO`, the boiling point stood at 334 °C, the log10 Koa was found to be 9.9, the log10 vapour pressure (mmHg) is -5.22 and the melting point came to 49.3 °C. In addition, the ready biodegradability entry is given as “readily biodegradable”. Consider `CCC(CO)(CO)COCC(CC)(CO)CO`, for which the melting point was determined as 110 °C and the ready biodegradability entry is given as “not readily biodegradable”. Regarding `CCCCCCC(C(=O)OCC)C(=O)OCC`, the boiling point came to 269 °C. For the compound `O=C1c2ccccc2C(=O)N1SC(Cl)(Cl)Cl`, the log10 Koc (L/kg) was determined as 3.27 and the log10 vapour pressure (mmHg) is -6.8.

For `CCOC(=O)CS`, the boiling point was 157 °C. Turning to `NNc1cccc2ccccc12`, the melting point is 117 °C. For `C=CCOCCC`, the boiling point was 91 °C and the log10 vapour pressure (mmHg) amounted to 1.78. `CCCCCCCCCCCCCCCCCC(=O)Nc1ccc(O)cc1`: the melting point came out at 134 °C. `Cc1nc(=O)c2ccccc2[nH]1` returned a melting point of 232 °C. On to `O=C(Nc1ccccc1)NC1CC1`, for which the log10 Koc (L/kg) was 1.74. `CC1(C)OCC(CO)O1` (stereo not given) showed a log10 vapour pressure (mmHg) of 2.03. For the compound `OC(c1ccc(F)cc1)(c1cncnc1)c1ccccc1Cl` (stereo not given), the melting point came out at 126 °C. Turning to `CCOC(=O)CN(C(=O)CCl)c1c(CC)cccc1CC`, the log10 Koc (L/kg) was found to be 2 and the melting point amounted to 49.5 °C.

Compound `OCCOc1ccc(N=Nc2ccccc2)cc1` displayed a log10 vapour pressure (mmHg) of -7.67. On to `COc1cc(OC)nc(N=C(O)NS(=O)(=O)N(C)S(C)(=O)=O)n1`, for which the log10 vapour pressure (mmHg) is -6.78 and the melting point came to 162 °C. In turn, `CCOC(=O)N1C(=O)c2ccccc2C1=O` displayed a melting point of 91 °C.

`C#CC(=C)C` gave a boiling point of 32 °C and a melting point of -113 °C.

`CN1CSC(=S)N(C)C1` displayed a log10 Henry constant (atm·m³/mol) of -9.58, a log10 Koc (L/kg) of 1, a log10 vapour pressure (mmHg) of -5.55 and a melting point of 106 °C. Further, the ready biodegradability entry was “not readily biodegradable”. `CNC(=O)c1ccccc1` displayed a boiling point of 291 °C, a log10 Koc (L/kg) of 1.68 and a melting point of 82 °C. As for `Oc1cc(Cl)c(Cl)cc1Cl`, the boiling point stood at 247 °C, the log10 Koc (L/kg) came to 3.36, the log10 vapour pressure (mmHg) was -2.12 and the melting point turned out to be 69 °C. In addition, the ready biodegradability result is “not readily biodegradable”. `COc1ccc(OC)c(C=O)c1` registered a boiling point of 270 °C and a melting point of 52 °C.

On to `O=C(O)CCOc1ccccc1`, for which the boiling point is 240 °C and the melting point amounted to 97.5 °C.

For `CC(=O)Nc1ccc(C=O)cc1`, the melting point came out at 157 °C.

`CC(C)COC(=O)CCCCC(=O)OCC(C)C` registered a boiling point of 279 °C and a melting point of -20 °C. The compound `CCCCCC(CC)CC` had a boiling point of 166 °C. The compound `Clc1ccc(Oc2ccccc2Cl)cc1Cl` came in with a log10 vapour pressure (mmHg) of -3.85. Take `C=CCCCCCCCCO`: the boiling point stood at 236 °C.

`CCN(CCO)CCCC(C)Nc1ccnc2cc(Cl)ccc12` (stereo not given): the melting point is 90 °C. Take `Cc1ccccc1N.Cl`: the boiling point stood at 242 °C and the melting point worked out at 215 °C.

In turn, `Cc1ccc2cccnc2c1` had a boiling point of 258 °C, a log10 vapour pressure (mmHg) of -2.05 and a melting point of 39 °C.
